# Data as given in US9440926B2, “Antiviral compounds and methods” (Biotron Limited, priority 2005, dated 2016).
# Key:
# Type in all cases: cell-based
# [1] = tested on: HIV-1 strain Ba-L; assay: HIV-1 Ba-L growth inhibition in primary macrophages (p24 ELISA); conditions: Human immunodeficiency virus 1, BAL, Primary macrophage; additional compounds, same assay system (HIV-1Ba-L, primary macrophages), estimated from dose response curves; read-out: Estimated IC50
# Description: The inhibition specifically of HIV-1 growth by the compounds of the invention was tested in primary macrophages in vitro using a method similar to that used to assess antibody neutralization (VanCott T C et al (1999)). In the present case, the laboratory adapted HIV-1 strain Ba-L was used, which is known to infect macrophages.
# Peripheral Blood Mononuclear Cells (PBMC) were prepared from healthy donors using buffy-coat packs obtained from the Australian Red Cross Blood Service (ARCBS). Blood was received the day following donation, and had been depleted of serum and platelets, leaving a small volume (less than 100 mL) of concentrated leukocytes.
# Leukocytes were separated from blood cells and granulocytes by density gradient centrifugation (Ficoll Paque) and washed extensively in PBS^− (without Ca/Mg) to remove platelets. Recovered cells were allowed to adhere to plastic tissue culture flasks (Becton Dickinson) for 2 hr, 37° C., 5% CO2, in media (DMEM (high)/10% AB serum/50 ug/mL gentamicin/2 mM L-glutamine) during which time the myeloid cells formed an adherent monolayer leaving lymphocytes unattached.
# Non-adherent lymphocytes were removed by washing with warm PBS^+ (with Ca/Mg) and were generally discarded. In some cases those cells were recovered and frozen in media/10% DMSO for use in viral stock infections. The adherent monocytes were recovered by scraping gently with a plastic cell scraper. The myeloid cells were then plated into 96-well plates at a cell concentration of 1.5×10^6/mL, and allowed to fully differentiate over a period of 14 days.
# Macrophages were allowed to differentiate over a 14 day period, with media changes as required. On day 14, cells were infected in the presence of decreasing concentrations of BIT compounds over a range 0-10 μM. Samples of 25 μL culture supernatants were removed from each well on day 7 and fresh media plus compound dilution was added.
# After 7 days the samples with and without compound were analysed to assess the level of virus present in the wells, using a p24 ELISA (Innotest). Virus levels in samples were converted to “percentage of control virus growth” values based on the controls (containing no compound). From that dose response curve (example FIG. 1) the IC50 was calculated and used as a measure of compound anti-HIV activity.
# [2] = Cytotoxicity to cells in the viral inhibition assay (MTT assay); conditions: human, primary human macrophages, additional compounds, same assay system, MTT, read-out: TC50 (the source's name)
# Description: The toxicity of test compounds to cells in the viral inhibition assay was determined using the MTT assay (Pauwels R, et al. (1988); D'Cruz O J et al. (1999); Joo H. (2003)). This method utilises Thiazolyl Blue (MTT), which is added to the cell culture (100 ug/well), and incubated for 4-5 hours whilst the live, metabolically active cells convert the chemical to its purple coloured metabolite, which forms intracellular crystals. The purple colour is measured colourimetrically (570-590 nm) once cells have been permeabilised using acidified isopropanol containing 10% triton X-100. The most intense colour development occurs in wells where the metabolising cells are most numerous. […] Those values were estimated manually from the Percentage Viability vs Concentration dose response curves (FIG. 1). The compound toxicity to cells in culture was taken into account in inhibition experiments and in separate experiments involving increased concentrations of compound. TC50 values were estimated in separate experiments (not shown) where concentrations of compound were greater.
# [3] = biological target: T1, Vpu (Human immunodeficiency virus type 1 group M subtype B, UniProt P05919); assay: Bacterial bioassay, Vpu; conditions: mean bacterial bioassay score; Vpu of HIV
# T1 construct: expressed in transfected cells
# Excerpt: (§1) The bacterial bioassay method used in the present example to test the anti-viral activity of the compounds against different viral targets was described in detail in PCT/2004/000866, incorporated in its entirety herein by reference. Vpu, p7 and M referred to in the table are small membrane proteins encoded by HIV, HCV and Dengue viruses, respectively, which have functional activities supporting viral growth and/or replication.
# [4] = biological target: T2, HCV p7 (Hepatitis C virus genotype 1a, UniProt P27958); assay: Bacterial bioassay, HCV p7; design: scale not given here; conditions: mean bacterial bioassay score; p7 of HCV
# T2 construct: expressed in transfected cells
# Excerpt: as §1
# [5] = biological target: T3, Den M (Dengue virus type 1, UniProt P33478); assay: Bacterial bioassay, Den M; design: scale not given here; conditions: mean bacterial bioassay score; M protein of Dengue virus
# T3 construct: expressed in transfected cells
# Excerpt: as §1
# T1 sequence (P05919 whole entry): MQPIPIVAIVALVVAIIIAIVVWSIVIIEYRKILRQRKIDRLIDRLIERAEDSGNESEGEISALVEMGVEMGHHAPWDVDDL
# T2 sequence (P27958 747-809): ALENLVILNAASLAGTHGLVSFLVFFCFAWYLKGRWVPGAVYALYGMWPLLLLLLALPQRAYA
# T3 sequence (P33478 206-280): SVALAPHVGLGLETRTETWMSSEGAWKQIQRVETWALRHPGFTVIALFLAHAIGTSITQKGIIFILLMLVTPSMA
SMILES,IC50 [1] [µM],CC50 [2] [µM],"Average Bacterial Assay Score, Vpu [3]","Average Bacterial Assay Score, HCV p7 [4]","Average Bacterial Assay Score, Den M [5]"
"N=C(N)NC(=O)c1ccc2cc(-c3ccsc3)ccc2c1 [BIT305, (6-(3-thienyl)-2-napthoyl)guanidine]",< 0.63,< 10,0.38,0.00,1.15
"Cc1ccc2cc(C(=O)NC(=N)N)ccc2c1 [BIT306, (6-methyl-2-napthoyl)guanidine]",< 10,10 to 50,0.52,0.25,2.53
"N=C(N)NC(=O)c1ccc2c(-c3ccccc3)cccc2c1 [BIT307, (5-phenyl-2-napthoyl)guanidine]",< 0.63,10 to 50,0.12,0.08,2.40
"N=C(N)NC(=O)c1ccc2c(-c3cccs3)cccc2c1 [BIT308, (5-(thien-2-yl)-2-napthoyl)guanidine]",< 0.63,10 to 50,0.45,0.08,2.40
"Cc1nn(C)c(C)c1-c1cccc2cc(C(=O)NC(=N)N)ccc12 [BIT309, (5-(1,3,5-trimethylpyrazol-4-yl)-2-napthoyl)guanidine]",> 10,> 50,0.12,0.00,0.00
"CC(C)Cn1cc(-c2cccc3cc(C(=O)NC(=N)N)ccc23)cn1 [BIT310, (5-(1-isobutyl-1H-pyrazol-4-yl)-2-napthoyl)guanidine]",< 2.5,10 to 50,0.00,0.00,1.60
"N=C(N)NC(=O)c1ccc2c(-c3ccoc3)cccc2c1 [BIT311, (5-(3-furyl)-2-napthoyl)guanidine]",< 0.63,10 to 50,0.42,0.42,1.60
"N=C(N)NC(=O)c1ccc2c(C3CC3)cccc2c1 [BIT312, (5-cyclopropyl-2-napthoyl)guanidine]",< 0.63,10 to 50,0.50,0.80,2.25
"N=C(N)NC(=O)c1ccc2c(Cl)cccc2c1 [BIT313, (5-chloro-2-napthoyl)guanidine]",< 2.5,10 to 50,0.30,1.30,3.00
